PMC8756595 (ACS Omega, 2021)

Molecular target: bovine erythrocyte CA II (bCA-II) (Bos taurus, UniProt P00921)
Assay: In vitro carbonic anhydrase inhibition assay
Type: biochemical
Details: for % inhibition: bCA-II, substrate 4-NPA, 25 °C, pH 7.4, test concentration not given; for inhibition activity against bCA-II (in words): qualitative statement

bovine erythrocyte CA II (bCA-II), sequence (P00921 whole entry): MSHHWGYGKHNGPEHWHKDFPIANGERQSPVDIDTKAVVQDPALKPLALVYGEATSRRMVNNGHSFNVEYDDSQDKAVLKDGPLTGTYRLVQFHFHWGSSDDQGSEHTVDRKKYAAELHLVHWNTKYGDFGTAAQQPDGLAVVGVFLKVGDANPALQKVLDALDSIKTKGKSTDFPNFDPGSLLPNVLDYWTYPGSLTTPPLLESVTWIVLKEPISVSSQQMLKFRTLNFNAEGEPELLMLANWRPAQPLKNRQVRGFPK

Row | IC50 | % inhibition | inhibition activity against bCA-II (in words) | Compound
1 | 21 ± 0.74 µM | 88.2% |  | CCCSc1nc2ccccc2n1CC(=O)NN=Cc1ccccc1OC [Compound 29, N′-(2-Methoxybenzylidene)-2-(2-(propylthio)-1H-benzo[d]imidazol-1-yl)acetohydrazide]
2 |  | 38.1% | inactive | CCCSc1nc2ccccc2n1CC(=O)NN=Cc1ccc(OC)c(OC)c1 [Compound 13, N′-(3,4-Dimethoxybenzylidene)-2-(2-(propylthio)-1H-benzo[d]imidazol-1-yl)acetohydrazide]
3 | 162 ± 3.54 µM | 84.3% | least active inhibitors | CCCSc1nc2ccccc2n1CC(=O)NN=Cc1ccc(F)cc1 [Compound 24, N′-(4-Fluorobenzylidene)-2-(2-(propylthio)-1H-benzo[d]imidazol-1-yl)acetohydrazide]
4 | 24.7 ± 3 µM | 90.1% |  | CCCSc1nc2ccccc2n1CC(=O)NN=Cc1ccc(C(C)C)cc1 [Compound 22, N′-(4-Isopropylbenzylidene)-2-(2-(propylthio)-1H-benzo[d]imidazol-1-yl)acetohydrazide]
5 | 55.6 ± 4.25 µM | 89.6% | least active inhibitors | CCCSc1nc2ccccc2n1CC(=O)NN=Cc1cccc(OC)c1OC [Compound 27, N′-(2,3-Dimethoxybenzylidene)-2-(2-(propylthio)-1H-benzo[d]imidazol-1-yl)acetohydrazide]
6 | 166 ± 1.61 µM | 67.8% | least active inhibitors | CCCSc1nc2ccccc2n1CC(=O)NN=Cc1ccc(C)o1 [Compound 26, N′-((5-Methylfuran-2-yl)methylene)-2-(2-(propylthio)-1H-benzo[d]imidazol-1-yl)acetohydrazide]
7 | 45.5 ± 2.07 µM | 67.7% | least active inhibitors | CCCSc1nc2ccccc2n1CC(=O)NN=Cc1ccc(O)c(OCC)c1 [Compound 20, N′-(3-Ethoxy-4-hydroxybenzylidene)-2-(2-(propylthio)-1H-benzo[d]imidazol-1-yl)acetohydrazide]
8 |  | 42.2% | inactive | CCCSc1nc2ccccc2n1CC(=O)NN=Cc1ccc(C=O)cc1 [Compound 21, N′-(4-Formylbenzylidene)-2-(2-(propylthio)-1H-benzo[d]imidazol-1-yl)acetohydrazide]
9 | 14.5 ± 1.05 µM | 91.2% |  | CCCSc1nc2ccccc2n1CC(=O)NN=Cc1ccc(OC)cc1OC [Compound 15, N′-(2,4-Dimethoxybenzylidene)-2-(2-(propylthio)-1H-benzo[d]imidazol-1-yl)acetohydrazide]
10 |  | 13.6% | inactive | CCCSc1nc2ccccc2n1CC(=O)NN=Cc1ccc(C)cc1 [Compound 19, N′-(4-Methylbenzylidene)-2-(2-(propylthio)-1H-benzo[d]imidazol-1-yl)acetohydrazide]
11 | 17.2 ± 1.24 µM | 83.0% |  | CCCSc1nc2ccccc2n1CC(=O)NN=Cc1ccccc1 [Compound 10, N′-Benzylidene-2-(2-(propylthio)-1H-benzo[d]imidazol-1-yl)acetohydrazide]
12 | 22.7 ± 1.37 µM | 81.2% |  | CCCSc1nc2ccccc2n1CC(=O)NN=Cc1ccc(O)c(OC)c1 [Compound 18, N′-(4-Hydroxy-3-methoxybenzylidene)-2-(2-(propylthio)-1H-benzo[d]imidazol-1-yl)acetohydrazide]
13 | 193 ± 3.24 µM | 57.0% | least active inhibitors | CCCSc1nc2ccccc2n1CC(=O)NN=Cc1ccco1 [Compound 25, N′-(Furan-2-ylmethylene)-2-(2-(propylthio)-1H-benzo[d]imidazol-1-yl)acetohydrazide]
14 |  | 22.8% | inactive | CCCSc1nc2ccccc2n1CC(=O)NN=Cc1cccc(OC)c1 [Compound 11, N′-(3-Methoxybenzylidene)-2-(2-(propylthio)-1H-benzo[d]imidazol-1-yl)acetohydrazide]
15 | 13.3 ± 1.25 µM | 89.1% |  | CCCSc1nc2ccccc2n1CC(=O)NN=Cc1cccc(OC)c1O [Compound 9, N′-(2-Hydroxy-3-methoxybenzylidene)-2-(2-(propylthio)-1H-benzo[d]imidazol-1-yl)acetohydrazide]
16 |  | 20.8% | inactive | CCCSc1nc2ccccc2n1CC(=O)NN=Cc1ccc(O)cc1O [Compound 14, N′-(2,4-Dihydroxybenzylidene)-2-(2-(propylthio)-1H-benzo[d]imidazol-1-yl)acetohydrazide]
17 | 24.8 ± 1.24 µM | 89.8% |  | CCCSc1nc2ccccc2n1CC(=O)NN=Cc1cccs1 [Compound 23, 2-(2-(Propylthio)-1H-benzo[d]imidazol-1-yl)-N′-(thiophen-2-ylmethylene)acetohydrazide]
18 | 14.6 ± 0.62 µM | 91.7% |  | CCCSc1nc2ccccc2n1CC(=O)NN=Cc1cccc2ccccc12 [Compound 12, N′-(Naphthalen-1-ylmethylene)-2-(2-(propylthio)-1H-benzo[d]imidazol-1-yl)acetohydrazide]
19 |  | 5.6% | inactive | CCCSc1nc2ccccc2n1CC(=O)NN=Cc1ccc(N(CC)CC)cc1 [Compound 16, N′-(4-(Diethylamino)benzylidene)-2-(2-(propylthio)-1H-benzo[d]imidazol-1-yl)acetohydrazide]
20 | 31.4 ± 2.29 µM | 90.7% | least active inhibitors | CCCSc1nc2ccccc2n1CC(=O)NN=Cc1cccc(O)c1 [Compound 17, N′-(3-Hydroxybenzylidene)-2-(2-(propylthio)-1H-benzo[d]imidazol-1-yl)acetohydrazide]
21 | 42.1 ± 1.39 µM | 67.6% | least active inhibitors | CCCSc1nc2ccccc2n1CC(=O)NN=Cc1c(Cl)cccc1Cl [Compound 28, N′-(2,6-Dichlorobenzylidene)-2-(2-(propylthio)-1H-benzo[d]imidazol-1-yl)acetohydrazide]
